In data set [1] the target is T1, Protein kinase C zeta type (Homo sapiens, UniProt Q05513).
T1 sequence (Q05513 whole entry): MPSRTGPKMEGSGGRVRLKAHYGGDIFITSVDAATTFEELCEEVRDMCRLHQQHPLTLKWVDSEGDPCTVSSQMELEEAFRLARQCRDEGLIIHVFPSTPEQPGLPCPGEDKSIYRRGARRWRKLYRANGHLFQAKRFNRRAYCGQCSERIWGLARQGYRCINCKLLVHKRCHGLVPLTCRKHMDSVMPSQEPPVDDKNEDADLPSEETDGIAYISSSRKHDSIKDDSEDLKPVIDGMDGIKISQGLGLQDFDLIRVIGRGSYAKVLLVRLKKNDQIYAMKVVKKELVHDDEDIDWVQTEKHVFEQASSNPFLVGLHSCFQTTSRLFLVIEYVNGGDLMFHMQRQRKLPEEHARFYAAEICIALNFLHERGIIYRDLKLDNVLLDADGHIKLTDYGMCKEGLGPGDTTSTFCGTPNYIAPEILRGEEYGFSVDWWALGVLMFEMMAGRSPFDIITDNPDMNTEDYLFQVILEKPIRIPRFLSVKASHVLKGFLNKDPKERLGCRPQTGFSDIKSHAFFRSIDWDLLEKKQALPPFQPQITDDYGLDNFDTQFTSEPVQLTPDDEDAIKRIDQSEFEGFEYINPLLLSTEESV
Kind of data set: Inhibition of recombinant full-length human aPKCzeta using CREBtide as substrate incubated for 3 hrs in presence of ATP by Kinase Glo luminescent assay.

A short description of data set [2]: AUC in CD1 mouse plasma at 10 mg/kg, iv measured up to 24 hrs. It counts as ADME, organism-based. On the set-up: dose 10 mg/kg, time < 24 hr, route intravenous. The following applies: in vivo.
The nature of data set [3]: Ratio of drug level in CD-1 mouse eye to plasma at 10 mg/kg, iv after 4 hrs by LCMS analysis. It counts as ADME, organism-based.
The nature of data set [4]: Inhibition of PKA (unknown origin) by radiometric kinase assay. Set-up: species or system Homo sapiens.
Data set [5] concerns HEK293. As to the kind of experiment: Inhibition of TNFalpha-induced NFkappaB activation in HEK293 cells at 2.5 to 10 uM preincubated for 2 hrs followed by TNFalpha stimulation by luciferase assay. The following applies: Homo sapiens. It counts as cell-based.
The nature of data set [6]: Inhibition of TNFalpha-induced NFkappaB activation in HEK293 cells preincubated for 2 hrs followed by TNFalpha stimulation by luciferase assay. It counts as cell-based. The following applies: Homo sapiens.
The test system of data set [7] is Rattus norvegicus. As to the kind of experiment: Inhibition of VEGF/TNFalpha-induced retinal vascular permeability in Long-Evans rat at 1 or 3 uM administered intravitreally followed by FITC-BSA, iv injection 3 hrs post drug dose and measured after 2 hrs by spectrophotometric method. It counts as functional, organism-based.
Data set [8] can be described thus: Tmax in CD1 mouse plasma at 20 mg/kg, po measured up to 24 hrs. Type of data set: ADME, organism-based. The following applies: in vivo.
Data set [9] is described as follows: Oral bioavailability in CD1 mouse plasma at 20 mg/kg measured up to 24 hrs. Type of data set: ADME, organism-based. The conditions noted are these: in vivo.
For data set [10], the species on record is Homo sapiens. Kind of data set: Selectivity ratio of IC50 for inhibition of recombinant full-length human aPKCzeta using CREBtide as substrate to IC50 for of recombinant full-length human aPKCiota using CREBtide as substrate.
Data set [11] can be described thus: Cmax in CD1 mouse plasma at 20 mg/kg, po measured up to 24 hrs. It counts as ADME, organism-based. On the set-up: dose 20 mg/kg, route oral. The following applies: in vivo.
For data set [12], the system named is Rattus norvegicus. Kind of data set: Effect on retinal function in overnight dark-adapted Long-Evans rat assessed as A-wave or B-wave amplitude at 3 uM administered intravitreally 3 to 5 hrs prior to exposure to a 0.1 cd.s/m2 to 10 cd.s/m2 test flash by electroretinography. Type of data set: ADME, organism-based. The conditions noted are these: in vivo, topical_or_ocular.

The species entered for data set [13] is Bos taurus. Kind of data set: Inhibition of VEGF-induced permeability in BREC cells at 0.01 to 1.0 uM incubated for 2 hrs. It counts as functional, cell-based.
The target in data set [14] is T2, Protein kinase C iota type (Homo sapiens, UniProt P41743).
T2 sequence (P41743 whole entry): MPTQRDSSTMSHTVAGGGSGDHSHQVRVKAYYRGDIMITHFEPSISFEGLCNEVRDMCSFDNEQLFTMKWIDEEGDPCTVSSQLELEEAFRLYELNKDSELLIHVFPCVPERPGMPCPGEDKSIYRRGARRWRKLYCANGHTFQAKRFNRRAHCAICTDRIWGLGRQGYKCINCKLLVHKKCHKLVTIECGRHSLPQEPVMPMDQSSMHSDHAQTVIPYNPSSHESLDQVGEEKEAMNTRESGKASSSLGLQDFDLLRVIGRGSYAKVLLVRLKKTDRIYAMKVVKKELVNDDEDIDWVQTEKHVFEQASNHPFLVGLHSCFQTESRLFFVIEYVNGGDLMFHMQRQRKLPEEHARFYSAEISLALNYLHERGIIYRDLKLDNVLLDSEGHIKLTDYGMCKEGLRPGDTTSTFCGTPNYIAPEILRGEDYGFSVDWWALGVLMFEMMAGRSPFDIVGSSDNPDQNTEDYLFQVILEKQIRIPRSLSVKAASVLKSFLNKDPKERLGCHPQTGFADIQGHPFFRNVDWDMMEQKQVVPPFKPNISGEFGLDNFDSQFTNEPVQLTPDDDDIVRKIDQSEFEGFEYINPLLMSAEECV
As to the kind of experiment: Inhibition of recombinant full-length human aPKCiota in presence of ATP at Km concentration by radiometric assay.

The nature of data set [15]: Ratio of drug level in CD-1 mouse brain to plasma at 10 mg/kg, iv after 4 hrs by LCMS analysis. Type of data set: ADME, organism-based.
In data set [16] the target is Rho-associated protein kinase 2 (Homo sapiens) (UniProt O75116). As to the kind of experiment: Inhibition of ROCK2 (unknown origin) at 5 uM by radiometric kinase assay.
Chain of Rho-associated protein kinase 2 (Homo sapiens) (O75116 whole entry, looked up): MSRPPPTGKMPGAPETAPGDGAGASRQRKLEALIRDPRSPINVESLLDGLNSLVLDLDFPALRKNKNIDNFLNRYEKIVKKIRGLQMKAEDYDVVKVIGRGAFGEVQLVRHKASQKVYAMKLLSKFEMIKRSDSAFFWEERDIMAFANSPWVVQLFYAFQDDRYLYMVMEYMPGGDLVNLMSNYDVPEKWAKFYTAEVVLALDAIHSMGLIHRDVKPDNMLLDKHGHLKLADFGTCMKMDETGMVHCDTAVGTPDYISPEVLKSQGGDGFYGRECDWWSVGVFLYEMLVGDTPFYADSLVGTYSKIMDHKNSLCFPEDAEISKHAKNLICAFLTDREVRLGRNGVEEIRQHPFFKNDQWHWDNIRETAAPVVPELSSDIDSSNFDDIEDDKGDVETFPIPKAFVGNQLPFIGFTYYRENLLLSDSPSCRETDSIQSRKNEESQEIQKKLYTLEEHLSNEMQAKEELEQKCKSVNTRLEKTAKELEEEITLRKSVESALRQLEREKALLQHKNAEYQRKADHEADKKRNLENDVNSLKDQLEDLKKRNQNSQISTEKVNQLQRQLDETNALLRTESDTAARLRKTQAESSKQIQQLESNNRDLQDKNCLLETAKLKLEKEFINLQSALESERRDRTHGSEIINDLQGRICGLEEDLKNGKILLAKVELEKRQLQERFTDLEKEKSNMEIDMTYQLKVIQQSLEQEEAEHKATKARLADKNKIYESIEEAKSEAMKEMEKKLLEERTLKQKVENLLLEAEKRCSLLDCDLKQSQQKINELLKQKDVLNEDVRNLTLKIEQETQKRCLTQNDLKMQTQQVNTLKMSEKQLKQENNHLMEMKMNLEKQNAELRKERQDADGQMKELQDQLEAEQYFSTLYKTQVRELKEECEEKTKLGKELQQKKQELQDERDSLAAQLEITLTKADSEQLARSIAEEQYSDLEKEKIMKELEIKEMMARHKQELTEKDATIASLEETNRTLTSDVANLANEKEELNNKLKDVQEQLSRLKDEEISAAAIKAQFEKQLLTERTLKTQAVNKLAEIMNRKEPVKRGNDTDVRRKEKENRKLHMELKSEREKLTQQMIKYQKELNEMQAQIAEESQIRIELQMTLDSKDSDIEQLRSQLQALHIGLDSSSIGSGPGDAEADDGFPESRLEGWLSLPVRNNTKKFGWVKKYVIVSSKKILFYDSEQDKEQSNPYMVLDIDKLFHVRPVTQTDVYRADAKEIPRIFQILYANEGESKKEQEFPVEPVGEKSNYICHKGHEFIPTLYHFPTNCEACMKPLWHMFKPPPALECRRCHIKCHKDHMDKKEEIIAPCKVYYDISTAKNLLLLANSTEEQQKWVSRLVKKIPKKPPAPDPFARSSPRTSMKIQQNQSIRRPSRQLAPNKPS
Data set [17] is described as follows: Drug level in iv dosed CD-1 mouse eye after 24 hrs by LCMS analysis. It counts as ADME, organism-based. The following applies: read-out: Drug uptake.
Data set [18] concerns Rattus norvegicus. As to the kind of experiment: Inhibition of VEGF/TNFalpha-induced retinal vascular permeability in Long-Evans rat at 3 uM administered intravitreally followed by FITC-BSA, iv injection 3 hrs post drug dose and measured after 2 hrs by spectrophotometric method relative to control. Type of data set: functional.
Data set [19] in a line: Microsomal stability in CD1 mouse liver microsomes assessed as half life at 1 uM in presence of beta-NADPH measured upto 60 mins by LC-MS/MS analysis. It counts as ADME, Microsome. The conditions noted are these: 1 h.
The test system of data set [20] is HEK293. Kind of data set: Cytotoxicity against HEK293 cells assessed as effect on cell survival by WST-1 assay. It counts as cell-based. The conditions noted are these: human.
Data set [21] is described as follows: Terminal elimination half life in CD1 mouse plasma at 20 mg/kg, po and measured up to 24 hrs. It counts as ADME, organism-based. The conditions noted are these: in vivo.
Data set [22] concerns the target Protein kinase C beta type (Homo sapiens) (UniProt P05771). As to the kind of experiment: Inhibition of PKCbeta1 (unknown origin) at 5 uM by radiometric kinase assay.
The target in data set [23] is T1, Protein kinase C zeta type. Kind of data set: Inhibition of recombinant full-length human aPKCzeta in presence of ATP at Km concentration by radiometric assay.
The nature of data set [24]: AUC in CD1 mouse plasma at 20 mg/kg, po measured up to 24 hrs. It counts as ADME, organism-based. On the set-up: time < 24 hr, dose 20 mg/kg, route oral. The following applies: in vivo.
Data set [25] in a line: Terminal elimination half life in CD1 mouse plasma at 10 mg/kg, iv measured up to 24 hrs. The conditions noted are these: in vivo. Type of data set: ADME, organism-based.
The target in data set [26] is T2, Protein kinase C iota type. As to the kind of experiment: Inhibition of recombinant full-length human aPKCiota using CREBtide as substrate incubated for 3 hrs in presence of ATP by kinase Glo luminescent assay.
The species entered for data set [27] is Bos taurus. As to the kind of experiment: Inhibition of VEGF-induced permeability in BREC cells in presence of Y-27632. Type of data set: functional, cell-based.
Data set [28] in a line: Ratio of drug level in CD-1 mouse eye to brain at 20 mg/kg, po after 4 hrs by LCMS analysis. Type of data set: ADME, organism-based. The following applies: in vivo.
Data set [29] can be described thus: Inhibition of VEGF-induced permeability in BREC cells incubated for 2 hrs. It counts as functional, cell-based, Bos taurus.
The nature of data set [30]: Ratio of drug level in CD-1 mouse eye to brain at 10 mg/kg, iv after 4 hrs by LCMS analysis. Type of data set: ADME, organism-based. The conditions noted are these: in vivo.
For data set [31], the species on record is Homo sapiens. As to the kind of experiment: Inhibition of PKA (unknown origin) at 5 uM by radiometric kinase assay.
The species entered for data set [32] is Bos taurus. Kind of data set: Inhibition of VEGF-induced permeability in BREC cells at 1 uM incubated for 2 hrs. It counts as functional, cell-based.
Data set [33] is filed under the species Bos taurus. As to the kind of experiment: Inhibition of VEGF-induced permeability in BREC cells at 0.01 uM incubated for 2 hrs. It counts as functional, cell-based.
Data set [34] is described as follows: Cytotoxicity against […] BREC cells at 0.03 to 1 uM. Type of data set: cell-based.
Data set [35] deals with T1, Protein kinase C zeta type. Kind of data set: Inhibition of recombinant full-length human aPKCzeta expressed in Sf21 insect cells using 5FAM-ERMRPRKRQGSVRRRV-NH2 as substrate in presence of ATP after 60 mins by IMAP fluorescence polarization analysis.
Data set [36] is filed under the species Bos taurus. Kind of data set: Inhibition of VEGF-induced permeability in BREC cells at 3 uM incubated for 2 hrs. Type of data set: functional, cell-based.

The structures appear in SMILES notation. Activity calls are given as the source filed them. The rule behind the calls is not given here. Where only a bound is given, the exact number is not on record here.

Chain of Protein kinase C beta type (Homo sapiens) (P05771 2-671 limits assumed): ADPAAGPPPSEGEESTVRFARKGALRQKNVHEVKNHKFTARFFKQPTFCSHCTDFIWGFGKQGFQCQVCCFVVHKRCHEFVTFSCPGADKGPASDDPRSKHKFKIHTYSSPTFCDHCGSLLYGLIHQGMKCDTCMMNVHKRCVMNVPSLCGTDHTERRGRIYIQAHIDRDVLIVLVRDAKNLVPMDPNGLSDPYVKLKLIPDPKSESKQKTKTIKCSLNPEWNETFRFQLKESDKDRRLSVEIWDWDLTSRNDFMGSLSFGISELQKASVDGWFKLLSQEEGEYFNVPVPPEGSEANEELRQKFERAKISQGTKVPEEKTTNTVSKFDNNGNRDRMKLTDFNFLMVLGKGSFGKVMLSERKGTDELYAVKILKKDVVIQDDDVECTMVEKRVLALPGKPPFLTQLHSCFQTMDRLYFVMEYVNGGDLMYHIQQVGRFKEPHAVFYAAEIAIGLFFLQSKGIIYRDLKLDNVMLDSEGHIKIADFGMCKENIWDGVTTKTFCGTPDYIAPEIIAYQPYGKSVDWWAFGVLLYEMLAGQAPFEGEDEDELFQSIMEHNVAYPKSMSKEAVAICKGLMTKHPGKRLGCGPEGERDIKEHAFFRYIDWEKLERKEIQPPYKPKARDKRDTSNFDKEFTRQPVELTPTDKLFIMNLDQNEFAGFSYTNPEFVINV

On to `NCC1CCN(c2nc(-c3ccncc3)nc3sc4c(c23)CCCC4)CC1`, for which the concentration for half-maximal inhibition (IC50) was 0.52 µM in data set [1]; 0.5 µM in [4]; 4.08 µM in [14]; 1.64 µM in data set [23]; 0.07 µM in data set [26]. Also, the area under the curve (AUC) in data set [2] stood at 4373 ng·h/mL; in data set [24] it was 6762 ng·h/mL. In [3], the partition ratio (Kp) at 4 h stood at 2.9. Moreover, the inhibition result (in the data set on HEK293 [5]; with Rattus norvegicus [7]; in the data set listed under Bos taurus [13]; in data set [16]; in data set [22]; in the data set listed under Bos taurus [27]) was “Active” throughout. The inhibition entry in the data set listed under Homo sapiens [31] is “Active”. The EC50 in data set [6] was 6.65 µM; in data set [29] (read-out: EC50), 0.071 µM. In addition, the Tmax in [8] came to 7 h. Moreover, in data set [9], the F is 81.7%. In addition, the Ratio IC50 in the data set listed under Homo sapiens [10] is 7.5. Moreover, in data set [11], the highest concentration (Cmax) was found to be 488 ng/mL. Also, the Activity entry with Rattus norvegicus [12] and in the data set with HEK293 [20] was “Non-Toxic” throughout. The figures for the Ratio in [15], in [28] and in data set [30] were 2.3, 2 and 1.3, respectively. In addition, the concentration at 24 h in data set [17] is 375 ng/g. The “inhibition (INH)” value in the data set on Rattus norvegicus [18] is on record as 100%. The t1/2 in data set [19] is more than 1 h. Moreover, the “beta t1/2” value worked out at 7.83 h in [21] and 2.77 h in data set [25].

Take `c1cc(-c2cc(N3CCNCC3)c3c4c(sc3n2)CCCC4)ccn1`: the IC50 in [1] was found to be 1.15 µM. Moreover, in the data set filed under Bos taurus [32], the inhibition result was “inactive”. In data set [29], the concentration for a half-maximal effect (EC50) result is on record as “Not Active”.

For `c1cc(-c2nc(NCCN3CCNCC3)c3c4c(sc3n2)CCCC4)ccn1`, the IC50 in data set [1] is 11.1 µM.

On to `NC1CCN(c2nc(-c3ccncc3)nc3sc4c(c23)CCCC4)CC1`, for which the EC50 in data set [29] (read-out: EC50) worked out at 0.3 µM.

On to `c1cc(-c2nc(N3CCNCC3)c3c4c(sc3n2)CCCC4)ccn1`, for which the inhibition result in the data set listed under Bos taurus [33] and in the data set filed under Bos taurus [32] was “inactive” in each case. In addition, the Activity result in data set [34] is given as “Toxic”. The half-maximal effective concentration (EC50) result in data set [29] is given as “Not Active”.

As for `CN1CCN(c2nc(-c3ccncc3)nc3sc4c(c23)CCCC4)CC1`, the half-inhibitory concentration (IC50) in data set [35] was 3.7 µM.

With `NCCN1CCN(c2nc(-c3ccncc3)nc3sc4c(c23)CCCC4)CC1`, the IC50 in [1] worked out at 0.42 µM.

For `CN(C)C1CCN(c2nc(-c3ccncc3)nc3sc4c(c23)CCCC4)CC1`, the EC50 in [29] (read-out: EC50) was determined as 0.3 µM.

Turning to `OC1CCN(c2nc(-c3ccncc3)nc3sc4c(c23)CCCC4)CC1`, the IC50 in data set [1] stood at 2.4 µM. Further, the EC50 result in data set [29] is recorded as “Not Active”. Besides, in the data set listed under Bos taurus [36], the inhibition entry is “inactive”.

The values are drawn from ChEMBL document CHEMBL4622847, “Synthesis and structure-activity relationships of thieno[2,3-d]pyrimidines as atypical protein kinase C inhibitors to control retinal vascular permeability and cytokine-induced edema” (Bioorg Med Chem, 2020).
